# How the values were obtained:
# [1] = system: pure human T lymphocytes, without macrophages; assay: Lymphokine production by pure human T lymphocytes without macrophages (+IL-1): BCGF activity; format: cell-based
# From the text: (§1) The supernatants have been collected, filtered (0.2 μm) and assayed for the presence of IL-2 or BCGF activity, by adding them at different concentrations to fresh T lymphocytes or to long term cultured B cells. The proliferating activity of these cells, dependent on the presence of the respective growth factor, has been evaluated through 3H-thymidine incorporation.
# The lymphokine production by human T lymphocytes purified through […] on nylon wool column has been evaluated with the same methods as in the previous experiment.
# In order to obviate the lack of macrophages, recombinant IL-1 β (Genzyme) has been added at the concentration of 25 Units/ml.
# [2] = system: spleen cells of normal mice; assay: Induction of Thy 1.2 antigen in spleen cells of normal mice; format: cell-based
# From the text: The capacity of the tripeptide Arg-Gly-Asp to induce in vitro the differentiation of T cell precursors into lymphocytes expressing T cell markers has been tested by evidencing the induction of Thy 1.2 membrane antigen.
# Spleen cells of normal mice have been used as source of "null" cells.
# Mice were killed by cervical dislocation.
# Spleens were aseptically removed and finely minced with forceps in Hank's balanced salt solution (HBSS) (Gibco Ltd, Paisley, Scotland). A suspension of single cells was obtained through filtration on a fine mesh wire sieve. Mononuclear cells (MNC) have been isolated through differential centrifugation on Lymphoprep (Nyegaard, Oslo, Norway) with continuous density gradient for 20 minutes at 450 g.
# After 3 washes in HBSS, MNC were suspended at a concentration of 5×10^6 cells/ml in 199 medium (Gibco Ltd) supplemented with 1% BSA (Cohn Fr. V. Sigma, St. Louis), L-glutamine 2 mM and 10 mcg/ml of gentamycin sulfate (Schering, Klworth, N.J., U.S.A.) (TC 199-BSA). The cells have been used when their viability was over 95% at the Trypan Blue exclusion test.
# Two hundred μl of the spleen MNC suspension have been mixed with the same volume of the tripeptide opportunely diluted with TC 199-BSA medium. The control cells have only been treated with the medium TC 199-BSA. […] containing 5% CO2, then washed twice with HBSS containing 5% heat-inactivated neonatal calf serum (Gibco) (HBSSS-CS) and finally resuspended in the same medium at a concentration of 10^6 cells/ml.
# The expression of Thy 1.2 antigen was analyzed by IF using and anti-Thy 1.2 monoclonal antibody conjugated with fluorescein (Bio-Yeda, supplied by Technogenetics, S. Mauro Torinese, Italy) at the concentration of 2 mcg/10^6 cells. The cells have been incubated with the antibody for 30 minutes at 4° C.
# After three washes in HBSS, the cells have been resuspended in the same medium and observed with a Leitz Orthomat microscope equipped with epiillumination.
# At least 300 cells have been counted in each evaluation.
# [3] = system: Human T lymphocytes; assay: Effect on cell cycle (propidium iodide, flow cytometer); format: cell-based; settings: 1 μg/ml, 72 hours with PHA
# Procedure: Human T lymphocytes have been incubated for 72 hours in presence of PHA and the tripeptides under examination (1 μg/ml). DNA has then been stained with propidium iodide and cells have been analyzed with a flow cytometer.
# [4] = Toxicological trials: LD50 in mice; settings: mouse, in vivo, ip; i.p. in mice
# [5] = system: B16-BL6 murine melanoma cells; assay: Antimetastatic activity: pulmonary colonization by melanoma cells inoculated in mice; format: in vivo, female C57BL/6 mice
# From the text: The capacity of the tripeptide […] of inhibiting the pulmonary colonization by B16-BL6 murine melanoma cells inoculated in female C57BL/6 mice having an average body weight of 20 g (10 animals per group) has been evaluated. […] Fourteen days later, the animals have been sacrificed, the lungs have been withdrawn and examined after formalin fixation for the presence of surface melanoma colonies. A group of control animals has only been treated with the tumour cell suspension.
# [6] = system: Human T lymphocytes; assay: Stimulation of lymphokine production in vitro: TCGF (IL-2) activity of supernatants; format: cell-based
# Procedure: (§2) Human T lymphocytes have been incubated with PHA and with or without the peptides under examination for 24 hours (in the case of IL-2) or 72 hours (in the case of BCGF).
# as §1
# [7] = system: Human T lymphocytes; assay: Stimulation of lymphokine production in vitro: BCGF activity of supernatants; format: cell-based
# Procedure: as §2, §1
compound,measurement,setting,value
"N=C(N)NCCC[C@H](N)C(=O)NCC(=O)N[C@@H](CC(=O)O)C(=O)O [ARG--GLY--ASP, L-Arginyl-glycyl-L-aspartic acid]",BCGF activity Δ %,"[1]; 1 mcg/ml, 3.125% of supernatant",+94%
same,BCGF ACTIVITY c.p.m.,"[1]; 1 mcg/ml, 3.125% of supernatant, T + PHA + IL-1 318",618 c.p.m.
same,BCGF activity Δ %,"[1]; 1 mcg/ml, 6.25% of supernatant",+9%
same,BCGF ACTIVITY c.p.m.,"[1]; 1 mcg/ml, 6.25% of supernatant, T + PHA + IL-1 582",634 c.p.m.
same,BCGF activity Δ %,"[1]; 1 mcg/ml, 12.5% of supernatant",+141%
same,BCGF ACTIVITY c.p.m.,"[1]; 1 mcg/ml, 12.5% of supernatant, T + PHA + IL-1 1104",2663 c.p.m.
same,BCGF activity Δ %,"[1]; 1 mcg/ml, 25% of supernatant",+106%
same,BCGF ACTIVITY c.p.m.,"[1]; 1 mcg/ml, 25% of supernatant, T + PHA + IL-1 2507",5172 c.p.m.
same,BCGF activity Δ %,"[1]; 1 mcg/ml, 50% of supernatant",+95%
same,BCGF ACTIVITY c.p.m.,"[1]; 1 mcg/ml, 50% of supernatant, T + PHA + IL-1 5056",9837 c.p.m.
same,BCGF activity Δ %,"[1]; 10 mcg/ml, 3.125% of supernatant",+147%
same,BCGF ACTIVITY c.p.m.,"[1]; 10 mcg/ml, 3.125% of supernatant, T + PHA + IL-1 318",784 c.p.m.
same,BCGF activity Δ %,"[1]; 10 mcg/ml, 6.25% of supernatant",+49%
same,BCGF ACTIVITY c.p.m.,"[1]; 10 mcg/ml, 6.25% of supernatant, T + PHA + IL-1 582",866 c.p.m.
same,BCGF activity Δ %,"[1]; 10 mcg/ml, 12.5% of supernatant",+171%
same,BCGF ACTIVITY c.p.m.,"[1]; 10 mcg/ml, 12.5% of supernatant, T + PHA + IL-1 1104",2997 c.p.m.
same,BCGF activity Δ %,"[1]; 10 mcg/ml, 25% of supernatant",+173%
same,BCGF ACTIVITY c.p.m.,"[1]; 10 mcg/ml, 25% of supernatant, T + PHA + IL-1 2507",6849 c.p.m.
same,BCGF activity Δ %,"[1]; 10 mcg/ml, 50% of supernatant",+125%
same,BCGF ACTIVITY c.p.m.,"[1]; 10 mcg/ml, 50% of supernatant, T + PHA + IL-1 5056",11364 c.p.m.
same,effect on lymphokine production by pure T lymphocytes,"[1]; both for IL-2 and BCGF, IL-1 β 25 Units/ml",comparable with that of the other reference compounds
same,VARIATION of % THY 1.2 + cells,"[2]; 0.1 μg/ml, 3 hours of incubation",+3.3
same,% THY 1.2 + CELLS,"[2]; 0.1 μg/ml, 3 hours of incubation, control 22.0",25.3%
same,VARIATION of % THY 1.2 + cells,"[2]; 1 μg/ml, 3 hours of incubation",+5.1
same,% THY 1.2 + CELLS,"[2]; 1 μg/ml, 3 hours of incubation, control 22.0",27.1%
same,VARIATION of % THY 1.2 + cells,"[2]; 10 μg/ml, 3 hours of incubation",+9.4
same,% THY 1.2 + CELLS,"[2]; 10 μg/ml, 3 hours of incubation, control 22.0",31.4%
same,VARIATION of % THY 1.2 + cells,"[2]; 10 μg/ml, 18 hours of incubation",+9.5
same,% THY 1.2 + CELLS,"[2]; 10 μg/ml, 18 hours of incubation, control 17.0",26.5%
same,VARIATION of % THY 1.2 + cells,"[2]; 100 μg/ml, 3 hours of incubation",+7.4
same,% THY 1.2 + CELLS,"[2]; 100 μg/ml, 3 hours of incubation, control 22.0",29.4%
same,VARIATION of % THY 1.2 + cells,"[2]; 100 μg/ml, 18 hours of incubation",+4.7
same,% THY 1.2 + CELLS,"[2]; 100 μg/ml, 18 hours of incubation, control 17.0",21.7%
same,VARIATION of % THY 1.2 + cells,"[2]; 200 μg/ml, 3 hours of incubation",+5.9
same,% THY 1.2 + CELLS,"[2]; 200 μg/ml, 3 hours of incubation, control 22.0",27.9%
same,optimum concentration for Thy 1.2 induction,[2]; in vitro,10 µg/mL
same,"G2 + M % cells, difference from T + PHA",[3],+6.12
same,"Go-Gl % cells, difference from T + PHA",[3],-5.67
same,"S % cells, difference from T + PHA",[3],-1.15
same,CELL PHASES G2 + M % CELLS,[3]; T + PHA 6.02,12.14%
same,CELL PHASES S % CELLS,[3]; T + PHA 30.61,29.46%
same,CELL PHASES Go-Gl % CELLS,[3]; T + PHA 63.36,57.69%
same,LD50,[4],> 1000 mg/kg
same,mean number of metastases,"[5]; 3 mg/mouse i.v. together with 2×10^5 melanoma cells, lungs after 14 days, controls above 500/mouse",173 /mouse
same,change of mean number of metastases vs controls,"[5]; 3 mg/mouse i.v., 7×10^4 tumour cells",-69%
same,mean number of metastases,"[5]; 3 mg/mouse i.v., 7×10^4 tumour cells, controls 21.6",6.8
same,TCGF activity Δ %,[6]; 3.125% of supernatant,+107%
same,TCGF ACTIVITY (mean),"[6]; 3.125% of supernatant, T + PHA 1564",3245 COUNTS PER MINUTE
same,TCGF activity Δ %,[6]; 6.25% of supernatant,+224%
same,TCGF ACTIVITY (mean),"[6]; 6.25% of supernatant, T + PHA 2622",8496 COUNTS PER MINUTE
same,TCGF activity Δ %,[6]; 12.5% of supernatant,+227%
same,TCGF ACTIVITY (mean),"[6]; 12.5% of supernatant, T + PHA 4012",13113 COUNTS PER MINUTE
same,TCGF activity Δ %,[6]; 25% of supernatant,+105%
same,TCGF ACTIVITY (mean),"[6]; 25% of supernatant, T + PHA 7824",16609 COUNTS PER MINUTE
same,TCGF activity Δ %,[6]; 50% of supernatant,+29%
same,TCGF ACTIVITY (mean),"[6]; 50% of supernatant, T + PHA 14086",18167 COUNTS PER MINUTE
same,BCGF activity Δ %,[7]; 3.125% of supernatant,+257%
same,BCGF ACTIVITY (mean),"[7]; 3.125% of supernatant, T + PHA 1345",4800 COUNTS PER MINUTE
same,BCGF activity Δ %,[7]; 6.25% of supernatant,+299%
same,BCGF ACTIVITY (mean),"[7]; 6.25% of supernatant, T + PHA 2156",8611 COUNTS PER MINUTE
same,BCGF activity Δ %,[7]; 12.5% of supernatant,+206%
same,BCGF ACTIVITY (mean),"[7]; 12.5% of supernatant, T + PHA 5402",16550 COUNTS PER MINUTE
same,BCGF activity Δ %,[7]; 25% of supernatant,+24%
same,BCGF ACTIVITY (mean),"[7]; 25% of supernatant, T + PHA 15030",18645 COUNTS PER MINUTE
same,BCGF activity Δ %,[7]; 50% of supernatant,+19%
same,BCGF ACTIVITY (mean),"[7]; 50% of supernatant, T + PHA 17297",20508 COUNTS PER MINUTE
same,stimulation of the growth factor production,"[7]; IL-2 and BCGF, slightly lower than Arg-Lys-Glu, higher than Arg-Lys-Asp",marked effect of stimulation

# Reference: patent US4929601A, “Tripeptides useful as immunostimulants as well as in the prevention of metastases” (Ellem Industria Farmaceutica, S.p.A., priority 1987, dated 1990)
